We go through eleven molecules from patent US9481648B2, “Kinase inhibitors” (Respivert Limited, priority 2013, dated 2016).

In general, IC50 refers to the concentration that inhibits the measured activity by half.

SMILES strings stand for the structures.

Assay [1] deals with β-catenin in d-U937 cells. The experiment in a line: Accumulation of β catenin in d-U937 cells (assay m). The assay is classed as cell-based, human. The procedure: U937 cells, a human monocytic cell line, are differentiated into macrophage-type cells by incubation with PMA (100 ng/mL) for between 48 to 72 hr. The cells are then incubated with either final concentrations of test compound or vehicle for 18 hr. The induction of β-catenin by the test compounds is stopped by replacing the media with 4% formaldehyde solution. Endogenous […] is neutralised by incubating with quenching buffer (100 μL, 0.1% sodium azide, 1% H2O2 in PBS with 0.05% Tween-20) for 20 min. The cells are washed with washing buffer (200 μL; PBS containing 0.05% Tween-20) and incubated with blocking solution (200 μL; 5% milk in PBS) for 1 hr, re-washed with washing buffer (200 μL) and then incubated overnight with anti-β-catenin antibody solution (50 μL) in 1% BSA/PBS (BD, Oxford, UK).
After washing with washing buffer (3×200 μL; PBS containing 0.05% Tween-20), cells are incubated with a HRP-conjugated secondary antibody solution (100 μL) in 1% BSA/PBS (Dako, Cambridge, UK) and the resultant signal is determined colourimetrically (OD: 450 nm with a reference wavelength of 655 nm) using TMB substrate (50 μL; R&D Systems, Abingdon, UK). This reaction is stopped by addition of 1N H2SO4 solution (50 μL). Cells are then washed with washing buffer and 2% crystal violet solution (50 μL) is applied for 30 min. After washing with washing buffer (3×200 μL), 1% SDS (100 μL) is added to each well and the plates are shaken lightly for 1 hr prior to measuring the absorbance at 595 nm (Varioskan® Flash, Thermo-Fisher Scientific).
The measured OD450-655 readings are corrected for cell number by dividing the OD450-655 by the OD595 readings.

The target of the next assay is GSK 3α (Homo sapiens (Human), UniProt P49840). The experiment in a line: GSK 3α enzyme inhibition (FRET, Z-LYTE; Method 2). The assay is classed as biochemical. The conditions noted are these: read-out: IC50 Values for Enzyme Inhibition GSK3α. Summed up: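 Z-LYTE FRET assay: GSK3-α (500 ng/mL stock) preincubated 105 min at RT with compound at 10, 1, 0.1 or 0.01 μg/mL stock. FRET peptide (8 μM stock) and ATP (40 μM stock) were then added for 1 h, followed by protease development for 1 h. Phosphorylation was read as coumarin/fluorescein emission ratio.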

The target in a further assay is c-Src (Homo sapiens (Human), UniProt P12931). Description: c-Src enzyme inhibition (FRET, Z-LYTE). The assay is classed as biochemical. The procedure: (§1) The enzyme inhibitory activities of compounds disclosed herein are determined by FRET using synthetic peptides labelled with both donor and acceptor fluorophores (Z-LYTE, Invitrogen Ltd., Paisley, UK).
(§2) The relevant enzyme (3000 ng/mL or 2000 ng/mL respectively, 2.5 μL) is incubated with the test compound (either 1 μg/mL, 0.1 μg/mL, 0.01 μg/mL, or 0.001 μg/mL, 2.5 μL each) for 2 hr at RT. The FRET peptides (8 μM, 2.5 μL), and appropriate ATP solutions (2.5 μL, 800 μM for c-Src, and 60 μM ATP for Syk) are then added to the enzymes/compound mixtures and the mixture incubated for 1 hr. Development reagent (protease, 5 μL) is added for 1 hr prior to detection in a fluorescence microplate reader (Varioskan® Flash, ThermoFisher Scientific).
(§3) In all cases, the site-specific protease cleaves non-phosphorylated peptide only and eliminates the FRET signal. Phosphorylation levels of each reaction are calculated using the ratio of coumarin emission (donor) over fluorescein emission (acceptor), for which high ratios indicate high phosphorylation and low ratios indicate low phosphorylation levels.

In another assay the target is p38 MAPKα (MAPK14) (Homo sapiens (Human), UniProt Q16539). The experiment in a line: p38 MAPKα enzyme inhibition (FRET, Z-LYTE; Method 2). The assay is classed as biochemical. On the procedure: as §1
The inhibitory activities of test compounds against the p38 MAPKα isoform (MAPK14: Invitrogen) are evaluated indirectly by determining the level of activation\phosphorylation of the down-stream molecule, MAPKAP-K2. The p38 MAPKα protein (80 ng/mL, 2.5 μL) is mixed with the test compound (2.5 μL of either 4 μg/mL, 0.4 μg/mL, 0.04 μg/mL or 0.004 μg/mL) for 2 hr at RT. […] The mixture is incubated for 1 hr at RT. Development reagent (protease, 5 μL) is added for 1 hr prior to detection in a fluorescence microplate reader (Vanoskan® Flash, ThermoFisher Scientific).
as §3

The target of another assay is Syk (Homo sapiens (Human), UniProt P43405). The experiment in a line: Syk enzyme inhibition (FRET, Z-LYTE). It counts as biochemical. On the procedure:
as §1, §2, §3

Chain of GSK 3α (P49840 whole entry): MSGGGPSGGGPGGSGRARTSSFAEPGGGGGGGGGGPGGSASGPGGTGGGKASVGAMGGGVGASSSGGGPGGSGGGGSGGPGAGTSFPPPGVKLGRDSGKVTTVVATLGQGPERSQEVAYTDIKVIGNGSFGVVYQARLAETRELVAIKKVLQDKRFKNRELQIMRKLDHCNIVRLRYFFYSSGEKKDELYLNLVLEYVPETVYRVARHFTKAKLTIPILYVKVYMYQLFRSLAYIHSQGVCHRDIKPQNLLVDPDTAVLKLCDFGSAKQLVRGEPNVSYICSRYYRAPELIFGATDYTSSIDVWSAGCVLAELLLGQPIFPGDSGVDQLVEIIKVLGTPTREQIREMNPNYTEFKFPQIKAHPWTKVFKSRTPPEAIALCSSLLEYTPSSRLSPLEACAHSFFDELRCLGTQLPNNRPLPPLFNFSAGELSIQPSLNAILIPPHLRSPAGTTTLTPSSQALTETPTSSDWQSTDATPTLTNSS
Chain of p38 MAPKα (MAPK14) (Q16539 whole entry, canonical isoform): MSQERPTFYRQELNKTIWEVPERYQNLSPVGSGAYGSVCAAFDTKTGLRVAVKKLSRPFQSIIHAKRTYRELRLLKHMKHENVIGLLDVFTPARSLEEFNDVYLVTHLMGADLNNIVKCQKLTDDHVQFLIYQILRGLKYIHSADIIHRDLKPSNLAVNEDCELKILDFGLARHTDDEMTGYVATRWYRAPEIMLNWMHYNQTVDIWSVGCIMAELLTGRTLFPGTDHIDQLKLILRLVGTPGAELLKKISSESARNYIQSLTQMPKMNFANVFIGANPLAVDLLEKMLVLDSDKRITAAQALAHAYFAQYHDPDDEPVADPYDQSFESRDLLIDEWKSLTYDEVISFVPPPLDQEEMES
Chain of c-Src (P12931 whole entry, looked up): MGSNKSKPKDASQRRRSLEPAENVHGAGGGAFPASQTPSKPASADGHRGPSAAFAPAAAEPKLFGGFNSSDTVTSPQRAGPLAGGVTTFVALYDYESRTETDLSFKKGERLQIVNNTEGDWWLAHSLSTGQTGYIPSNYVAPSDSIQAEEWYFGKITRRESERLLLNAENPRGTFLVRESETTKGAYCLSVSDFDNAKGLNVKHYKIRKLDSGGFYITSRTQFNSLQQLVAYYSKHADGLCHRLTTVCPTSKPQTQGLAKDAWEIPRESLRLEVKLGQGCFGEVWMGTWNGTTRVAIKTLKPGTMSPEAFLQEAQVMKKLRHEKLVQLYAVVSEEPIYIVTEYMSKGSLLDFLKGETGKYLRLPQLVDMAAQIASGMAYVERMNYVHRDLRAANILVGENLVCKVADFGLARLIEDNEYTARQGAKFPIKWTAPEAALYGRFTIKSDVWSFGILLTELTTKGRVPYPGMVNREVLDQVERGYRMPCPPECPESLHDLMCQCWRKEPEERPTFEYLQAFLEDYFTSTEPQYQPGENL

In the case of `C#Cc1cc(Nc2cc(Oc3ccc(NC(=O)Nc4cc(C(C)(C)C)cc(C(N)=O)c4OC)c4ccccc34)ccn2)cc(C(=O)NCCN2CCOCC2)c1` [Example 48, 3-((4-((4-(3-(5-(tert-Butyl)-3-carbamoyl-2-methoxyphenyl)ureido)naphthalen-1-yl)oxy)pyridin-2-yl)amino)-5-ethynyl-N-(2-morpholinoethyl)benzamide], the figures for the “% β-catenin induction” value in assay [1] (test compound 1 μg/mL), in assay [1] (test compound 5 μg/mL) and in assay [1] (test compound 10 μg/mL) were −2%, −4% and −3%, respectively. In addition, the IC50 stood at 5030 nM on GSK 3α, 45 nM against c-Src, 229 nM against p38 MAPKα (MAPK14) and 490 nM against Syk.

On to `COCCOCCOCCOc1cc(Nc2nccc(Oc3ccc(NC(=O)Nc4cc(NS(C)(=O)=O)cc(C(C)(C)C)c4)c4ccccc34)n2)cc(OC)c1` [Example 24, N-(3-(tert-Butyl)-5-(3-(4-((2-((3-methoxy-5-(2-(2-(2-methoxyethoxy)ethoxy)ethoxy)-phenyl)amino)pyrimidin-4-yl)oxy)naphthalen-1-yl)ureido)phenyl)methanesulfonamide], for which the results for the “% β-catenin induction” value in assay [1] (test compound 1 μg/mL), in assay [1] (test compound 5 μg/mL) and in assay [1] (test compound 10 μg/mL) were −3%, 27% and 25%, respectively. The IC50 on GSK 3α came out at 680 nM; against c-Src, 14 nM; at p38 MAPKα (MAPK14) it was 30 nM; against Syk it was 549 nM.

With `COCCOCCOCCOc1cc(Nc2nccc(Oc3ccc(NC(=O)Nc4cc(C(C)(C)C)cc(C(N)=O)c4OC)c4ccccc34)n2)cc(OC)c1` [Example 20, 5-(tert-Butyl)-2-methoxy-3-(3-(4-((2-((3-methoxy-5-(2-(2-(2-methoxyethoxy)ethoxy)-ethoxy)phenyl)amino)pyrimidin-4-yl)oxy)naphthalen-1-yl)ureido)benzamide], the “% β-catenin induction” value in assay [1] (test compound 1 μg/mL) was 4%; in assay [1] (test compound 5 μg/mL), 31%; in assay [1] (test compound 10 μg/mL) it was 29%. In addition, the IC50 on GSK 3α is 748 nM; at c-Src it was 6 nM; on p38 MAPKα (MAPK14) it was 33 nM; against Syk, 29 nM.

For `COc1cc(Nc2cc(Oc3ccc(NC(=O)Nc4cc(C(C)(C)C)cc(C(N)=O)c4OC)c4ccccc34)ccn2)cc(C(=O)NCCN2CCOCC2)c1` [Example 47, 3-((4-((4-(3-(5-(tert-Butyl)-3-carbamoyl-2-methoxyphenyl)ureido)naphthalen-1-yl)oxy)pyridin-2-yl)amino)-5-methoxy-N-(2-morpholinoethyl)benzamide], the “% β-catenin induction” value is reported as −5% in assay [1] (test compound 1 μg/mL), 4% in assay [1] (test compound 5 μg/mL) and 8% in assay [1] (test compound 10 μg/mL). The IC50 at GSK 3α turned out to be 1600 nM; on c-Src it was 15 nM; against p38 MAPKα (MAPK14), 92 nM; on Syk, 169 nM.

Regarding `C#Cc1cc(Nc2cc(Oc3ccc(NC(=O)Nc4cc(C(C)(C)C)cc(NS(C)(=O)=O)c4OC)c4ccccc34)ccn2)cc(C(=O)N[C@@H](C)COCCOCCOC)c1` [Example 67], the “% β-catenin induction” value was 3% in assay [1] (test compound 1 μg/mL), 2% in assay [1] (test compound 5 μg/mL) and −2% in assay [1] (test compound 10 μg/mL). Moreover, the IC50 on GSK 3α turned out to be 11700 nM; at c-Src it was 56 nM; at p38 MAPKα (MAPK14) it was 245 nM; against Syk it was 1170 nM.

With `COc1c(NC(=O)Nc2ccc(Oc3ccnc(NCc4ccccn4)c3)c3ccccc23)cc(C(C)(C)C)cc1C(=O)NC1COC1` [Example 80, 5-(tert-Butyl)-2-methoxy-N-(oxetan-3-yl)-3-(3-(4-((2-((pyridin-2-ylmethyl)amino)pyridin-4-yl)oxy)naphthalen-1-yl)ureido)benzamide], the “% β-catenin induction” value came to 5% in assay [1] (test compound 1 μg/mL), 38% in assay [1] (test compound 5 μg/mL) and 47% in assay [1] (test compound 10 μg/mL). In addition, the IC50 on GSK 3α amounted to 1250 nM; against c-Src, 968 nM; on p38 MAPKα (MAPK14) it was 18 nM.

As for `COCCOCCOCCOc1cc(Nc2nccc(Oc3ccc(NC(=O)Nc4cc(C(C)(C)C)cc(NS(C)(=O)=O)c4-c4ccccc4)c4ccccc34)n2)cc(OC)c1` [83(a), N-(4-(tert-butyl)-6-(3-(4-((2-((3-methoxy-5-(2-(2-(2-methoxyethoxy)ethoxy)ethoxy)phenyl)-amino)pyrimidin-4-yl)oxy)naphthalen-1-yl)ureido)-[1,1′-biphenyl]-2-yl)methane-sulfonamide], the IC50 was determined as 8330 nM on GSK 3α, 22 nM at c-Src, 142 nM against p38 MAPKα (MAPK14) and 1160 nM on Syk.

On to `COc1cc(Nc2cc(Oc3ccc(NC(=O)Nc4cc(C(C)(C)C)cc(NS(C)(=O)=O)c4OC)c4ccccc34)ccn2)cc(C(=O)NCC(=O)N2CCOCC2)c1` [Example 85(a), 3-[[4-[[4-[[5-tert-Butyl-3-(methanesulfonamido)-2-methoxyphenyl]-carbamoylamino]-1-naphthyl]oxy]-2-pyridyl]amino]-5-methoxy-N-(2-morvholino-2-oxo-ethyl)benzamide], for which the IC50 on GSK 3α came out at 6740 nM; on c-Src, 29 nM; on p38 MAPKα (MAPK14), 38 nM; against Syk it was 656 nM.

As to `COCCOCCOCCOc1cc(Nc2nccc(Oc3ccc(NC(=O)Nc4cc(C(C)(C)C)cc(-c5cnn[nH]5)c4OC)c4ccccc34)n2)cc(OC)c1` [Example 70, 1-(5-(tert-Butyl)-2-methoxy-3-(1H-1,2,3-triazol-5-yl)phenyl)-3-(4-((2-((3-methoxy-5-(2-(2-(2-methoxyethoxy)ethoxy)ethoxy)phenyl)amino)pyrimidin-4-yl)oxy)naphthalen-1-yl)urea], the IC50 on GSK 3α worked out at 3970 nM; against c-Src, 67 nM; at p38 MAPKα (MAPK14) it was 332 nM; at Syk, 86 nM.

On to `C#Cc1cc(Nc2cc(Oc3ccc(NC(=O)Nc4cc(C(N)=O)cc(C(C)(C)C)c4)c4ccccc34)ccn2)cc(C(=O)NCCOCCOCCOC)c1` [Example 62, 3-((4-((4-(3-(3-(tert-Butyl)-5-carbamoylphenyl)ureido)naphthalen-1-yl)oxy)vridin-2-yl)amino)-5-ethynyl-N-(2-(2-(2-methoxyethoxy)ethoxy)ethyl)benzamide], for which the IC50 at GSK 3α is 10600 nM; against c-Src, 44 nM; against p38 MAPKα (MAPK14), 32 nM; against Syk it was 1320 nM.

Regarding `COCCOCCOCCOc1cc(Nc2nccc(Oc3ccc(NC(=O)Nc4cc(C(C)(C)C)cc(C(=O)NCCO)c4OC)c4ccccc34)n2)cc(OC)c1` [Example 35, 5-(tert-Butyl)-N-(2-hydroxyethyl)-2-methoxy-3-(3-(4-((2-((3-methoxy-5-(2-(2-(2-methoxy-ethoxy)ethoxy)ethoxy)phenyl)amino)pyrimidin-4-yl)oxy)naphthalen-1-yl)ureido)-benzamide], the IC50 on GSK 3α stood at 597 nM; against c-Src, 13 nM; at p38 MAPKα (MAPK14), 120 nM; against Syk it was 48 nM.
